{
  "source": "ChEMBL document CHEMBL4831557",
  "about": "“Parthenolide Derivatives as PKM2 Activators Showing Potential in Colorectal Cancer” (J Med Chem, 2021)",
  "key": {"[1]": {"test_system": "HT-29", "assay": "Inhibition of colony formation in human HT-29 cells incubated for 14 days by crystal violet staining based analysis", "format": "functional, cell-based", "settings": "dose 0.15-0.3 µM, time 14.0 day"}, "[2]": {"test_system": "HT-29", "assay": "Induction of apoptosis in human HT-29 cells after 48 hrs by Annexin V-PE and 7-AAD staining based flow cytometric analysis", "format": "functional, cell-based", "settings": "dose 0.45-1.8 µM"}, "[3]": {"assay": "Toxicity in BALB/c mouse xenografted with human HT-29 cells assessed as decrease in body weight at 30 mg/kg, ip administered once every 2 days for 2 weeks and monitered every 2 days", "format": "organism-based", "settings": "in vivo, 336 h"}, "[4]": {"test_system": "HT-29", "assay": "Antiproliferative activity against human HT-29 cells at 0.25 to 1 uM measured after 48 hrs by EdU staining based confocal microscopic analysis", "format": "functional, cell-based", "settings": "dose 0.25-1 µM"}, "[5]": {"test_system": "HT-29", "assay": "Inhibition of epithelial-mesenchymal transition in human HT-29 cells assessed as change in E-cadherin expression", "format": "functional, cell-based"}, "[6]": {"test_system": "SW480", "assay": "Cytotoxicity against human SW480 cells assessed as reduction in cell viability incubated for 48 hrs by MTT assay", "format": "functional, cell-based", "settings": "SW480, 48 h"}, "[7]": {"test_system": "HT-29", "assay": "Induction of apoptosis in human HT-29 cells assessed as decrease in caspase-3 expression at 0.45 to 1.8 uM after 48 hrs by Western blotting analysis", "format": "functional, cell-based", "settings": "dose 0.45-1.8 µM"}, "[8]": {"test_system": "HT-29", "assay": "Antimigratory activity against human HT-29 cells", "format": "functional, cell-based"}, "[9]": {"test_system": "HT-29", "assay": "Antitumor activity against human HT-29 cells xenografted in BALB/c mouse assessed as reduction in tumor growth at 15 to 30 mg/kg, ip administered once every 2 days for 2 weeks by vernier caliper method", "format": "functional, organism-based", "settings": "dose 15-30 mg/kg"}, "[10]": {"test_system": "SW480", "assay": "Induction of apoptosis in human SW480 cells after 48 hrs by Annexin V-PE and 7-AAD staining based flow cytometric analysis", "format": "functional, cell-based", "settings": "dose 0.2-0.8 µM"}, "[11]": {"target": "T1, Pyruvate kinase PKM (Homo sapiens, UniProt P14618)", "T1 sequence (P14618 2-531 limits assumed)": "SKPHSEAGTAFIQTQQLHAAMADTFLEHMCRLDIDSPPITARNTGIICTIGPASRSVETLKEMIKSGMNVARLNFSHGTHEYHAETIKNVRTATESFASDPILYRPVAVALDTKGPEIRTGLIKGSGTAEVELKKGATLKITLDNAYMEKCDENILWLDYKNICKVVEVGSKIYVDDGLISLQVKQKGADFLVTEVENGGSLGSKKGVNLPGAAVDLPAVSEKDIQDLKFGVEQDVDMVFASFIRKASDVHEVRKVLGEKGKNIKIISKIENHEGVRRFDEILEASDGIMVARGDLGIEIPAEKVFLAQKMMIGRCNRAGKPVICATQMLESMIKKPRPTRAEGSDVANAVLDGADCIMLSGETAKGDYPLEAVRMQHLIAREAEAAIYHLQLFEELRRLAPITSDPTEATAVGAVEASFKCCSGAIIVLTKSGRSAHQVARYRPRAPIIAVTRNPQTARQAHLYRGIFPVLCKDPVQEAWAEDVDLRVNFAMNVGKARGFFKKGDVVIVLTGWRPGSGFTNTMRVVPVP", "assay": "Inhibition of PKM2/STAT3 in human HT-29 cells assessed as decrease in phosphorylated STAT3 level at 0.45 to 1.8 uM after 48 hrs by Western blot analysis", "format": "cell-based", "settings": "dose 0.45-1.8 µM"}, "[12]": {"test_system": "HT-29", "assay": "Effect on total PKM2 protein expression in cytoplasm of human HT-29 cells at 0.45 to 1.8 uM after 48 hrs by Western blot analysis", "format": "functional, cell-based", "settings": "dose 0.45-1.8 µM"}, "[13]": {"test_system": "HT-29", "assay": "Induction of intracellular ROS production in human HT-29 cells at 0.45 to 1.8 uM incubated for 48 hrs by DCFH-DA staining based flow cytometry analysis", "format": "functional, cell-based", "settings": "dose 0.45-1.8 µM"}, "[14]": {"target": "T1, Pyruvate kinase PKM", "assay": "Inhibition of PKM2/STAT3 in human HT-29 cells assessed as increase in bax protein expression at 0.45 to 1.8 uM incubated for 48 hrs by Western blot analysis", "format": "cell-based", "settings": "dose 0.45-1.8 µM"}, "[15]": {"target": "T1, Pyruvate kinase PKM", "assay": "Activation of PKM2 in human HT-29 cells assessed as decrease in lactic acid production", "format": "cell-based", "settings": "filed as activator"}, "[16]": {"target": "T1, Pyruvate kinase PKM", "assay": "Inhibition of PKM2/STAT3 in human HT-29 cells assessed as decrease in total STAT3 level at 0.45 to 1.8 uM after 48 hrs by Western blot analysis", "format": "cell-based", "settings": "dose 0.45-1.8 µM"}, "[17]": {"test_system": "HepG2", "assay": "Cytotoxicity against human HepG2 cells assessed as reduction in cell viability incubated for 48 hrs by MTT assay", "format": "functional, cell-based", "settings": "HepG2, 48 h"}, "[18]": {"test_system": "A549", "assay": "cells", "settings": "Homo sapiens, A549, 48 h"}, "[19]": {"test_system": "HT-29", "assay": "Inhibition of epithelial-mesenchymal transition in human HT-29 cells assessed as change in Snail-2 expression", "format": "functional, cell-based"}, "[20]": {"target": "T1, Pyruvate kinase PKM", "assay": "Inhibition of PKM2/STAT3 in human HT-29 cells assessed as reduction in bcl-xl protein expression at 0.45 to 1.8 uM incubated for 48 hrs by Western blot analysis", "format": "cell-based", "settings": "dose 0.45-1.8 µM"}, "[21]": {"test_system": "HT-29", "assay": "Induction of apoptosis in human HT-29 cells assessed as increase in cleaved caspase-3 expression at 0.45 to 1.8 uM after 48 hrs by Western blotting analysis", "format": "functional, cell-based", "settings": "dose 0.45-1.8 µM"}, "[22]": {"target": "T1, Pyruvate kinase PKM", "assay": "Activation of human PKM2-C424A expressed in Escherichia coli BL21 (DE3) assessed as increase in PKM2-C424A tetramer formation by chemical cross-linking assay"}, "[23]": {"test_system": "NCM460", "assay": "Cytotoxicity against human NCM460 cells assessed as reduction in cell viability incubated for 48 hrs by MTT assay", "format": "cell-based", "settings": "NCM460, 48 h"}, "[24]": {"test_system": "HT-29", "assay": "Induction of cell cycle arrest in human HT-29 cells assessed as accumulation of cells at G2/M phase after 48 hrs by PI staining based flow cytometric analysis", "format": "functional", "settings": "dose 0.45-1.8 µM"}, "[25]": {"target": "T1, Pyruvate kinase PKM", "assay": "Inhibition of PKM2 dimer nuclear translocation in human HT-29 cells by immunostaining based analysis", "format": "cell-based"}, "[26]": {"target": "T1, Pyruvate kinase PKM", "assay": "Inhibition of PKM2/STAT3 in human HT-29 cells assessed as reduction in cyclin-D1 protein expression at 0.45 to 1.8 uM incubated for 48 hrs by Western blot analysis", "format": "cell-based", "settings": "dose 0.45-1.8 µM"}, "[27]": {"test_system": "HT-29", "assay": "Antitumor activity against human HT-29 cells xenografted in BALB/c mouse assessed as reduction in tumor weight at 15 to 30 mg/kg, ip administered once every two days for 2 weeks by vernier caliper method", "format": "functional, organism-based", "settings": "dose 15-30 mg/kg"}, "[28]": {"test_system": "U2OS", "assay": "Cytotoxicity against human U2OS cells assessed as reduction in cell viability incubated for 48 hrs by MTT assay", "format": "functional, cell-based"}, "[29]": {"test_system": "SW480", "assay": "Induction of cell cycle arrest in human […] cells assessed as accumulation of cells at G2/M phase after 48 hrs by PI staining based flow cytometric analysis", "format": "functional", "settings": "dose 0.2-0.6 µM"}, "[30]": {"assay": "Selectivity index, ratio of IC50 for human NCM460 cells to IC50 for human SW480 cells"}, "[31]": {"test_system": "SW480", "assay": "Effect on mitochondrial membrane potential in human SW480 cells at 0.2 to 0.6 uM measured after 48 hrs by JC-1 staining based assay", "format": "functional, cell-based", "settings": "dose 0.2-0.6 µM"}, "[32]": {"target": "T1, Pyruvate kinase PKM", "assay": "Inhibition of PKM2/STAT3 in human HT-29 cells assessed as reduction in C-myc protein expression at 0.45 to 1.8 uM incubated for 48 hrs by Western blot analysis", "format": "cell-based", "settings": "dose 0.45-1.8 µM"}, "[33]": {"target": "Pyruvate kinase PKM (Homo sapiens, UniProt P14618, C424A)", "sequence (P14618 2-531 C424A limits assumed)": "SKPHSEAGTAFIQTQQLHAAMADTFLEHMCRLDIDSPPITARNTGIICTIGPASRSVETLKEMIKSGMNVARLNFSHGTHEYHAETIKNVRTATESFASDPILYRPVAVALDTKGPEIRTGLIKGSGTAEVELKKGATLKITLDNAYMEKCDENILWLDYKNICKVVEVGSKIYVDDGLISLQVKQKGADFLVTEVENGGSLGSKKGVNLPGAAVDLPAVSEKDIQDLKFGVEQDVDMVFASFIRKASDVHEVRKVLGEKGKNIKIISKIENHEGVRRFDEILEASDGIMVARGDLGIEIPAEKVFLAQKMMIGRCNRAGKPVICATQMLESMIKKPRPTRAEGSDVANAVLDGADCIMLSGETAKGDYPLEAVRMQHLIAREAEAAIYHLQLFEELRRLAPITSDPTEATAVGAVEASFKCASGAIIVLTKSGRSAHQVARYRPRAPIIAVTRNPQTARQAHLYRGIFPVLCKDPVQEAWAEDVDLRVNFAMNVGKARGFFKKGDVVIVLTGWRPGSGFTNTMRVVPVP", "assay": "Activation of human PKM2-C424A expressed in Escherichia coli BL21 (DE3)"}, "[34]": {"test_system": "HCT-116", "assay": "Cytotoxicity against human HCT-116 cells assessed as reduction in cell viability incubated for 48 hrs by MTT assay", "format": "functional, cell-based", "settings": "HCT-116, 48 h"}, "[35]": {"target": "T1, Pyruvate kinase PKM", "assay": "Activation of PKM2 in human HT-29 cells assessed as decrease in extracellular acidification rate", "format": "cell-based", "settings": "filed as activator"}, "[36]": {"assay": "Selectivity index, ratio of IC50 for human NCM460 cells to IC50 for human HT-29 cells", "format": "toxicity", "settings": "NCM460 cells versus HT-29 cells, read-out: Ratio IC50"}, "[37]": {"test_system": "MDA-MB-231", "assay": "Cytotoxicity against human MDA-MB-231 cells assessed as reduction in cell viability incubated for 48 hrs by MTT assay", "format": "functional, cell-based", "settings": "MDA-MB-231, 48 h"}, "[38]": {"target": "T1, Pyruvate kinase PKM", "assay": "Activation of PKM2 in human HT-29 cells assessed as increase in PKM2 tetramer formation by dynamic laser light scattering analysis", "format": "cell-based", "settings": "filed as activator"}, "[39]": {"test_system": "HT-29", "assay": "Cytotoxicity against human HT-29 cells assessed as reduction in cell viability incubated for 48 hrs by MTT assay", "format": "functional, cell-based", "settings": "HT-29, 48 h"}, "[40]": {"target": "T1, Pyruvate kinase PKM", "assay": "Binding affinity to recombinant human PKM2 assessed as covalent adduct formation incubated for 1 hr by LC-MS/MS analysis", "settings": "filed as activator"}, "[41]": {"target": "T1, Pyruvate kinase PKM", "assay": "Activation of PKM2 in human HT-29 cells assessed as increase in cell basal respiration", "format": "cell-based", "settings": "filed as activator"}},
  "note": "Calls of active or inactive are those of the source. No cut-off for these calls is given here.",
  "data": [
    {"smiles": "C=C1C(=O)O[C@H]2[C@H]1CC/C(COC(=O)c1ccc3nccc(Br)c3c1)=C/CC[C@@]1(C)O[C@@H]21", "values": [
      {"measurement": "inhibition", "setting": "[1]", "value": "Dose-Dependent Effect"},
      {"measurement": "Activity", "setting": "[2]", "value": "Dose-Dependent Effect"},
      {"measurement": "Activity", "setting": "[3]", "value": "Non-Toxic"},
      {"measurement": "Activity", "setting": "[4]", "value": "Active"},
      {"measurement": "inhibition", "setting": "[5]", "value": "inactive"},
      {"measurement": "IC50", "setting": "[6]", "value": 220, "unit": "nM"},
      {"measurement": "Activity", "setting": "[7]", "value": "Active"},
      {"measurement": "Activity", "setting": "[8]", "value": "Active"},
      {"measurement": "Activity", "setting": "[9]", "value": "Active"},
      {"measurement": "Activity", "setting": "[10]", "value": "Dose-Dependent Effect"},
      {"measurement": "inhibition", "setting": "[11]", "value": "Active"},
      {"measurement": "Activity", "setting": "[12]", "value": "inactive"},
      {"measurement": "Activity", "setting": "[13]", "value": "Active"},
      {"measurement": "inhibition", "setting": "[14]", "value": "Active"},
      {"measurement": "Activity", "setting": "[15]", "value": "Active"},
      {"measurement": "inhibition", "setting": "[16]", "value": "Active"},
      {"measurement": "IC50", "setting": "[17]", "value": 3900, "unit": "nM"},
      {"measurement": "IC50", "setting": "[18]", "value": 1670, "unit": "nM"},
      {"measurement": "inhibition", "setting": "[19]", "value": "inactive"},
      {"measurement": "inhibition", "setting": "[20]", "value": "Active"},
      {"measurement": "Activity", "setting": "[21]", "value": "Active"},
      {"measurement": "Activity", "setting": "[22]", "value": "inactive"},
      {"measurement": "IC50", "setting": "[23]", "value": 2020, "unit": "nM"},
      {"measurement": "Activity", "setting": "[24]", "value": "Dose-Dependent Effect"},
      {"measurement": "inhibition", "setting": "[25]", "value": "Active"},
      {"measurement": "inhibition", "setting": "[26]", "value": "Active"},
      {"measurement": "Activity", "setting": "[27]", "value": "Active"},
      {"measurement": "IC50", "setting": "[28]", "value": 1790, "unit": "nM"},
      {"measurement": "Activity", "setting": "[29]", "value": "Dose-Dependent Effect"},
      {"measurement": "Ratio IC50", "setting": "[30]", "value": 9.18},
      {"measurement": "Activity", "setting": "[31]", "value": "Active"},
      {"measurement": "inhibition", "setting": "[32]", "value": "Active"},
      {"measurement": "AC50", "setting": "[33]", "value": 100, "unit": "nM"},
      {"measurement": "IC50", "setting": "[34]", "value": 1000, "unit": "nM"},
      {"measurement": "Activity", "setting": "[35]", "value": "Active"},
      {"measurement": "selectivity ratio", "setting": "[36]", "value": 3.06},
      {"measurement": "IC50", "setting": "[37]", "value": 1030, "unit": "nM"},
      {"measurement": "Activity", "setting": "[38]", "value": "Active"},
      {"measurement": "IC50", "setting": "[39]", "value": 660, "unit": "nM"},
      {"measurement": "Activity", "setting": "[40]", "value": "Active"},
      {"measurement": "Activity", "setting": "[41]", "value": "Active"}
    ]}
  ]
}
